Target: T1, Ba/F3 cell EGFR Exon20 ins NPH (Homo sapiens, UniProt P00533, INS773NPH)
T1 construct: expressed in transfected cells; host or cells: Ba/F3
Test: Ba/F3 cell proliferation suppression, EGFR Exon20 ins NPH
Type: cell-based
Conditions: GI50 class; Ba/F3 cell line with NPH inserted at Exon20 of EGFR; 72 hours
Summary of the method: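 Cells were seeded 24 h before dosing and then treated for 72 hours with compound at final concentrations of 0.3 nM to 50 um. Live cells were measured by CellTiter-Glo luminescence, and GI50 values were derived from growth ratio relative to control across three repeats.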

SMILES	Ba/F3 (NPH) Activity
C=CC(=O)Nc1cc(Nc2cc(N3OCC[C@H]3c3c(F)cccc3F)ncn2)c(OC)cc1N1C[C@H]2CCN(C)[C@H]2C1 [compound 898, N-(5-((6-((S)-3-(2,6-difluorophenyl)isoxazolidine-2-yl)pyrimidine-4-yl)amino)-4-methoxy-2-((3aR,6aR)-1-methylhexahydropyrrolo [3,4-b]pyrrole-5(1H)-yl)phenyl) acrylamide]	C (500 nM ≤ GI50 < 5000 nM)
C=CC(=O)Nc1cc(Nc2cc(N3OCC[C@@H]3c3cccc(C#N)c3)ncn2)c(OC)cc1N1CCC(N2CCN(C3CC3)C[C@H]2C)CC1 [Example 131, N-(5-((6-((R)-3-(3-cyanophenyl)isoxazolidine-2-yl)pyrimidine-4-yl)amino)-2-(4-((R)-4-cyclopropyl-2-methylpiperazine-1-yl)piperidine-1-yl)-4-methoxyphenyl) acrylamide]	A (GI50 < 50 nM)
C=CC(=O)Nc1cc(Nc2cc(N3OCC[C@@H]3c3ccccc3)ncn2)c(OC)cc1N1CCC(N2C[C@H]3C[C@@H]2CO3)CC1 [Example 53, N-(2-(4-((1R,4R)-2-oxa-5-azabicyclo[2.2.1]heptane-5-yl)piperidine-1-yl)-4-methoxy-5-((6-((R)-3-phenylisoxazolidine-2-yl)pyrimidine-4-yl)amino)phenyl) acrylamide]	A (GI50 < 50 nM)
C=CC(=O)Nc1cc(Nc2cc(N3OCC[C@@H]3Cc3ccccc3)ncn2)c(OC)cc1N1CCN(C2CCOCC2)CC1 [compound 971, N-(5-((6-((S)-3-benzylisoxazolidine-2-yl)pyrimidine-4-yl)amino)-4-methoxy-2-(4-(tetrahydro-2H-pyran-4-yl)piperazine-1-yl)phenyl) acrylamide]	A (GI50 < 50 nM)
C=CC(=O)Nc1cc(Nc2cc(N3OCC[C@@H]3c3ccc(Cl)cc3)ncn2)c(OC)cc1N1CCC(N2CCN(C3CC3)CC2)CC1 [Example 58, N-(5-((6-((R)-3-(4-chlorophenyl)isoxazolidine-2-yl)pyrimidine-4-yl)amino)-2-(4-(4-cyclopropylpiperazine-1-yl)piperidine-1-yl)-4-methoxyphenyl) acrylamide]	A (GI50 < 50 nM)
C=CC(=O)Nc1cc(Nc2cc(N3OCC[C@@H]3c3ccc(F)cc3F)ncn2)c(OC)cc1-n1cnc(C)c1 [compound 386, N-(5-((6-((R)-3-(2,4-difluorophenyl)isoxazolidine-2-yl)pyrimidine-4-yl)amino)-4-methoxy-2-(4-methyl-1H-imidazole-1-yl)phenyl)acrylamide]	B (50 nM ≤ GI50 < 500 nM)
C=CC(=O)Nc1cc(Nc2cc(N3OCC[C@@H]3c3ccc(F)cc3F)ncn2)c(OC)cc1N1CCC(N2CCN(C3CC3)CC2)CC1 [Example 139, N-(2-(4-(4-cyclopropylpiperazine-1-yl)piperidine-1-yl)-5-((6-((R)-3-(2,4-difluorophenyl)isoxazolidine-2-yl)pyrimidine-4-yl)amino)-4-methoxyphenyl) acrylamide]	A (GI50 < 50 nM)
C=CC(=O)Nc1cc(Nc2cc(N3OCC[C@@H]3Cc3cccc(N(C)C)c3)ncn2)c(OC)cc1N1CCC(N2CCN(C3CC3)[C@@H](C)C2)CC1 [compound 1045, N-(2-(4-((S)-4-cyclopropyl-3-methylpiperazine-1-yl)piperidine-1-yl)-5-((6-((S)-3-(3-(dimethylamino)benzyl)isoxazolidine-2-yl)pyrimidine-4-yl)amino)-4-methoxyphenyl) acrylamide]	B (50 nM ≤ GI50 < 500 nM)
C=CC(=O)Nc1cc(Nc2cc(N3OCC[C@@H]3c3cccc(Cl)c3C)ncn2)c(OC)cc1N1CCN(C)CC1 [compound 584, N-(5-((6-((R)-3-(3-chloro-2-methylphenyl)isoxazolidine-2-yl)pyrimidine-4-yl)amino)-4-methoxy-2-(4-methylpiperazine-1-yl)phenyl)acrylamide]	A (GI50 < 50 nM)
C=CC(=O)Nc1cc(Nc2cc(N3OCC[C@@H]3c3cccc(Cl)c3F)ncn2)c(OC)cc1N1CCN(C2COC2)CC1 [compound 745, N-(5-((6-((R)-3-(3-chloro-2-fluorophenyl)isoxazolidine-2-yl)pyrimidine-4-yl)amino)-4-methoxy-2-(4-(oxetane-3-yl)piperazine-1-yl)phenyl) acrylamide]	A (GI50 < 50 nM)
C=CC(=O)Nc1cc(Nc2cc(N3OCC[C@@H]3c3cccc(Cl)c3F)ncn2)c(OC)cc1N1CCC(N2CCN(C3COC3)CC2)CC1 [Example 86, N-(5-((6-((R)-3-(3-chloro-2-fluorophenyl)isoxazolidine-2-yl)pyrimidine-4-yl)amino)-4-methoxy-2-(4-(4-(oxetane-3-yl)piperazine-1-yl)piperidine-1-yl)phenyl)acrylamide]	A (GI50 < 50 nM)
C=CC(=O)Nc1cc(Nc2cc(N3OCC[C@@H]3c3cccc(F)c3Cl)ncn2)c(OC)cc1N1CCC(N2CCOCC2)CC1 [compound 598, N-(5-((6-((R)-3-(2-chloro-3-fluorophenyl)isoxazolidine-2-yl)pyrimidine-4-yl)amino)-4-methoxy-2-(4-morpholinopiperidine-1-yl)phenyl)acrylamide]	A (GI50 < 50 nM)
C=CC(=O)Nc1cc(Nc2cc(N3OCC[C@@H]3c3ccc4ccccc4c3)ncn2)c(OC)cc1N1CCC(N2C[C@H]3C[C@@H]2CO3)CC1 [compound 557, N-(2-(4-((1R,4R)-2-oxa-5-azabicyclo[2.2.1]heptane-5-yl)piperidine-1-yl)-4-methoxy-5-((6-((R)-3-(naphthalene-2-yl)isoxazolidine-2-yl)pyrimidine-4-yl)amino)phenyl)acrylamide]	B (50 nM ≤ GI50 < 500 nM)
C=CC(=O)Nc1cc(Nc2cc(N3OCC[C@@H]3c3cccs3)ncn2)c(OC)cc1N1CCC(N2CCN(C3CC3)CC2)CC1 [Example 147, N-(2-(4-(4-cyclopropylpiperazine-1-yl)piperidine-1-yl)-4-methoxy-5-((6-((R)-3-(thiophene-2-yl)isoxazolidine-2-yl)pyrimidine-4-yl)amino)phenyl)acrylamide]	A (GI50 < 50 nM)
C=CC(=O)Nc1cc(Nc2cc(N3OCC[C@@H]3c3cccs3)ncn2)c(OC)cc1N1CCC(N2C[C@H]3C[C@@H]2CO3)CC1 [compound 930, N-(2-(4-((1R,4R)-2-oxa-5-azabicyclo [2.2.1]heptane-5-yl)piperidine-1-yl)-4-methoxy-5-((6-((R)-3-(thiophene-2-yl)isoxazolidine-2-yl)pyrimidine-4-yl)amino)phenyl)acrylamide]	A (GI50 < 50 nM)
C=CC(=O)Nc1cc(Nc2cc(N3OCC[C@@H]3Cc3cccc(N(C)C)c3)ncn2)c(OC)cc1N1CCC(N2CCN(C3CC3)CC2)CC1 [compound 1044, N-(2-(4-(4-cyclopropylpiperazine-1-yl)piperidine-1-yl)-5-((6-((S)-3-(3-(dimethylamino)benzyl)isoxazolidine-2-yl)pyrimidine-4-yl)amino)-4-methoxyphenyl) acrylamide]	B (50 nM ≤ GI50 < 500 nM)
C=CC(=O)Nc1cc(Nc2cc(N3OCC[C@@H]3Cc3cccc(N(C)C)c3)ncn2)c(OC)cc1N1CCC(N2C[C@H]3C[C@@H]2CO3)CC1 [compound 1047, N-(2-(4-((1R,4R)-2-oxa-5-azabicyclo [2.2.1]heptane-5-yl)piperidine-1-yl)-5-((6-((S)-3-(3-(dimethylamino)benzyl)isoxazolidine-2-yl)pyrimidine-4-yl)amino)-4-methoxyphenyl) acrylamide]	B (50 nM ≤ GI50 < 500 nM)
C=CC(=O)Nc1cc(Nc2cc(N3OCC[C@@H]3c3ccc(C)nc3)ncn2)c(OC)cc1N1C[C@H]2C[C@@H]1CO2 [Example 224, N-(2-((1R,4R)-2-oxa-5-azabicyclo[2.2.1]heptane-5-yl)-4-methoxy-5-((6-((R)-3-(6-methylpyridine-3-yl)isoxazolidine-2-yl)pyrimidine-4-yl)amino)phenyl)acrylamide]	C (500 nM ≤ GI50 < 5000 nM)
C=CC(=O)Nc1cc(Nc2cc(N3OCC[C@@H]3c3ccc(Cl)cc3F)ncn2)c(OC)cc1N1CCC(N2CCN(C)CC2)CC1 [compound 454, N-(5-((6-((R)-3-(4-chloro-2-fluorophenyl)isoxazolidine-2-yl)pyrimidine-4-yl)amino)-4-methoxy-2-(4-(4-methylpiperazine-1-yl)piperidine-1-yl)phenyl) acrylamide]	A (GI50 < 50 nM)
C=CC(=O)Nc1cc(Nc2cc(N3OCC[C@@H]3c3cccc(Cl)c3Cl)ncn2)c(OC)cc1N1C[C@@H]2C[C@H]1CO2 [compound 522, N-(2-((1S,4S)-2-oxa-5-azabicyclo[2.2.1]heptane-5-yl)-5-((6-((R)-3-(2,3-dichlorophenyl)isoxazolidine-2-yl)pyrimidine-4-yl)amino)-4-methoxyphenyl) acrylamide]	B (50 nM ≤ GI50 < 500 nM)
C=CC(=O)Nc1cc(Nc2cc(N3OCC[C@@H]3c3ccc(C)nc3)ncn2)c(OC)cc1N1CCN(CC)CC1 [Example 42, N-(2-(4-ethylpiperazine-1-yl)-4-methoxy-5-((6((R)-3-(6-methylpyridine-3-yl)isoxazolidine-2-yl)pyrimidine-4-yl)amino)phenyl) acrylamide]	B (50 nM ≤ GI50 < 500 nM)
C#Cc1cccc([C@H]2CCON2c2cc(Nc3cc(NC(=O)C=C)c(N4CCC(N5CCC(N(C)C)CC5)CC4)cc3OC)ncn2)c1 [compound 655, N-(2-(4-(dimethylamino)-[1,4'-bipiperidine]-1'-yl)-5-((6-((R)-3-(3-ethynylphenyl)isoxazolidine-2-yl)pyrimidine-4-yl)amino)-4-methoxyphenyl) acrylamide]	B (50 nM ≤ GI50 < 500 nM)

— patent publication US12157730B2, “Heteroaryl derivative, method for producing same, and pharmaceutical composition comprising same as effective component” (VORONOI INC., priority 2019, dated 2024)
